Results published in patent US20080234232A1, “Methods and compositions for targeting AFAP” (priority 2007, published 2008).

Tests used:
PH1 domain of AFAP-110 [1] = target: T1, PH1 domain of AFAP-110 (Gallus gallus, UniProt Q90738); assay: Lipid binding assay (Far Western), GST-PH1; conditions: 0.5 μg/ml fusion protein, lipids spotted on membrane
T1 construct: AFAP-110 contains two PH domains, one amino terminal (PH1) and the other carboxy terminal (PH2); made in house; host or cells: bacteria
Procedure: FIG. 5: The phospholipid binding properties of the PH domains of AFAP-110. A) Pleckstrin homology fusion proteins, GST-PH1, GST-PH2 and GST-DAPP1, were purified from bacteria by affinity chromatography. Phospholipids were spotted onto PVDF membranes as described in the methods section. The membranes were incubated overnight with 0.5 μg/ml • GST-PH1, GST-PH2 or GST-DAPP1. Washed membranes were incubated with anti-GST antibody and exposed to film.
B) Pleckstrin homology fusion protein, GST-PH1, was purified from bacteria by affinity chromatography. Two-fold changes in concentration (1.6 pg-100.0 pg) of phospholipids were spotted onto PVDF membranes as described in the methods section. The PIP arrays were incubated with 0.5 μg/ml fusion protein and probed with anti-GST antibody.
Pleckstrin homology (PH) fusion proteins GST-PH1, GST-PH2 and GST-DAPP1, were purified from bacteria by affinity chromatography. A Far Western Blot procedure was used for detecting the fusion protein binding to nitrocellulose immobilized phospholipids (Stevenson, J. Met. al., 1998); PIP strips and PIP arrays were purchased from Echelon, Inc. Overlay assays measured the relative amounts of GST-tagged fusion protein bound to spotted phospholipids. A plasmid encoding GST-DAPP1 previously shown to bind Ptdlns-3,4-P2 and Ptdlns-3,4,5-P3 (Dowler, S. et. al., 1999) was used as a control, kindly provided by Mark Lemmon (Lemmon, M. A., 2003). The membranes were wetted with methanol and then transferred to blocking solution composed of 3% BSA in TBS containing 1% Tween-20 (TBS-T) for 1 hour at 4° C. Membranes were incubated with 0.5 μg/ml each fusion proteins in TBS-T overnight at 4° C. Following incubation, membranes were rinsed three times with TBS-T, washed for 5 minutes and incubated at 4° C. for 1 hour with anti-GST antibody (1:20000 in TBS-T). Following the standard wash procedure, membranes were incubated at 4° C. for 30 minutes with peroxidase-conjugated secondary antibody (1:30000 in TBS-T). The washed membranes were incubated with chemiluminescence reagent and exposed to X-ray film.

PH1 domain of AFAP-110 [2] = target: T1, PH1 domain of AFAP-110; assay: Lipid sedimentation assay, GST-PH1; assay type: binding; conditions: PC vesicles with lipid 19:1 (PC:PS 7:3), 0.025 mM GST fusion protein
Procedure: E) Lipid sedimentation assay was performed using pleckstrin homology fusion protein GST-PH1 as described in the methods sections. The GST-PH1 fusion protein has the capacity to co-sediment with several lipids containing vesicles as indicated in the pellet (P). Soluble fractions (S) containing unbound GST-PH1 purified fusion proteins were resolved by SDS-PAGE and detected by Coomassie stain.
A sedimentation assay was used to detect PH domain protein association with membrane phospholipids. Phospholipid stock solutions: 1 mg/ml L-α-Ptdlns-4-P, 1.0 mg/ml 1,2-dipalmitoyl-sn-glycero-3-Ptdlns-3-P, 0.1 mg/ml 1,2-dioleoyl-sn-glycero-3-Ptdlns-3,4-P2, and 1 mg/ml L-α-Ptdlns-4,5-P2 in chloroform:methanol:water (60:30:4). However, 10 mg/ml L-α-phosphatidylinositol, 0.1 mg/ml L-α Ptdlns-3-P, 0.2 mg/ml L-α-Ptdlns-3,4,5-P3, 10 mg/ml L-α-phosphatidylserine, and 10 mg/ml L-α-phosphatidylcholine in chloroform neat. All lipid stocks were purged with dry N2 and stored −20° C. The lipid vesicles were prepared as follows utilizing a sonication method. Briefly, in a heavy walled tube, PC and another stock phospholipid (e.g. Ptdlns, Ptdlns-3-P, Ptdlns-4-P, Ptdlns-3,4-P2, Ptdlns-3,5-P2, Ptdlns-3,4,5-P3, or PC) were combined in a 19:1 molar ratio; PC and PS were combined in a 7:3 molar ratio. Lipids were dried with a stream of N2 and traces of solvent were removed by vacuum and resuspended to 5.2 mM PC in buffer B [10 mM HEPES, pH 7.5, 50 mM KCl, 0.5 mM EGTA, and 1.0 mM MgCl2]. The resulting phospholipid sheets were sonicated to form vesicles. Samples were prepared to contain 1.7 mM vesicle PC and 0.025 mM recombinant GST fusion protein (DAPP1 or PH1) in buffer B. Samples were incubated 60 min and centrifuged with a Beckman Airfuge for 15 min at room temperature. 16% of the supernatant and 100% of the pellet from each sample was used for analysis by Laemmli method of SDS polyacrylamide gel electrophoresis. The gels were stained with SYPRO Orange or Coomassie Blue to visualize the proteins.

PI3K = assay: Immunofluorescence of Ptdlns-3,4,5-P3 production in SYF/cSrc cells; assay type: cell-based, mouse; conditions: for PMA-induced Ptdlns-3,4,5-P3 production: 100 nM PMA with 6 μM bisindolylmaleimide [I], 50 nM wortmannin, LY294002 or 5 μM PP1
Procedure: SYF/cSrc cells were serum-starved for 24 hours. Cells stimulated with 10% serum (panels c-f), 100 nM PMA for 5 (panels g-h), or 15 minutes (panels i-j); as well as treated with 100 nM PMA in combination with 6 μM bisindolylmaleimide [I] (panels k-I) or 50 nM wortmannin (panels m-n). Cells treated with 100 nM PMA in combination with 5 μM PP1 (panel o-p) and Ptdlns-3,4,5-P3 levels evaluated. Cells were immunolabeled with a PI-3,4,5-P3-specific antibody (Echelon, Inc.;1:100) and TRITC-phalloidin (1:500). Secondary antibody for anti-PI-3,4,5-P3 (1:100) was Alexa IgM 647 anti-mouse (1:200). Bars represent 20 μm.
(§1) SYF, SYF/cSrc, p85α+/+ and p85−/− cells were cultured in standard culture media. Transient transfections of SYF, SYF/cSrc, p85α+/+ cells for immunofluorescence were carried out using LipofectAMINE™ Reagent (Invitrogen) as per manufacturer's protocol. Briefly, Approximately 5.0-8.0×10^4 cells per well were transfected at 50-70% confluent on coverstips with 2-4 μg of plasmid DNA and incubated for 3-4 hours. Thirty-six hours after transfection, cells were serum starved for 12 hours, treated, and subsequently fixed and permeablized as previously described (Qian, Y. et. al., 1998). Cells were treated with a PKC activator, 100 nM PMA for 5 or 15 minutes or in combination with the following pretreatments; a PKC inhibitor, 6 μM bisindolylmaleimide [I] for six hours; or PI3K inhibitor, 10 μM LY294002 for six hours; 50 nM Wortmannin for 30 minutes; and/or a Src family inhibitor, 5 μM PP1 for six hours. For actin labeling, a 1:500 dilution of TRITC-phalloidin was used as labeled in the figures. Primary antibody concentrations used were diluted in 5% Bovine Serum Albumin (BSA) dissolved in 1× phosphate-buffered saline (PBS): EC10 mAb-1:500; Phospho-Src Family (Y416) pAb-1:250; Anti-PI-3,4,5-P3 mAb-1:100; Anti-AFAP-110 (F1)pAb-1:1000; Anti-cSrc pAb-1:500; Anti-flag-1:1000. All fluorescent secondary and phalloidin antibodies were diluted 1:200 in 5% BSA, and are labeled according to figure legends. Cells were washed and mounted on slides with Fluoromount-G (Fisher). A Zeiss LSM 510 confocal microscope was used to scan images of about 1 μM in thickness. To prevent cross-contamination between the different fluorochromes, each channel was imaged sequentially using the multitrack recording module before merging the images. For all figures, representative cells are shown (>100 cells examined per image shown).
Ptdlns-3,4,5-P3 production was measured using the anti-Ptdlns-3,4,5-P3 antibody (Echelon, inc.) for analysis by immunofluorescence and contrasted with stress filament integrity, measured using TRITC-phalloidin as previously described (Chen, R. et. al., 2002; Hama, H. et. al., 2004). SYF/cSrc cells were left untreated or treated with serum as controls for PI3K activation. […] In addition, SYF/cSrc cells were stimulated with PMA for 5 or 15 minutes.

cSrc = assay: Immunofluorescence: translocation of cSrc from the perinuclear region to the cell periphery; assay type: cell-based, mouse; conditions: SYF cells, 100 nM PMA with 6 μM bisindolylmaleimide or 10 μM LY
Procedure: FIG. 2: Inhibition of PI3K blocks translocation of cSrc from the perinuclear region of mouse embryo fibroblast in response to PMA treatment. SYF and p85−/− null cells were transiently transfected with cSrc and labeled for avian cSrc using EC10, an avian-specific monoclonal antibody (1:500). EC10 was visualized with anti-mouse Atexa Fluor 488 (false colored red for consistency). Cells treated with 100 nM PMA (panel b) induced translocation of cSrc to the cell periphery as indicated by the arrows. However, cells treated with 100 nM PMA in conjunction with 6 μM bisindolylmaleimide (panel c) or 10 μM LY (panel d) blocked the translocation of cSrc as indicated by the arrows. […] (n=nucleus) Bars represent 20 μM.
as §1, with “All fluorescent secondary and phalloidin antibodies were diluted 1:200 in 5% BSA, and are labeled according to figure legends. Cells were washed and mounted on slides with Fluoromount-G (Fisher). A Zeiss LSM 510 confocal microscope was used to scan images of about 1 μM in thickness. To prevent cross-contamination between the different fluorochromes, each channel was imaged sequentially using the multitrack recording module before merging the images. For all figures, representative cells are shown (>100 cells examined per image shown).” left out

[3] = tested on: AFAP-110 colocalization with cSrc and cSrc activation; assay: Immunofluorescence: PMA-induced colocalization of AFAP-110 with cSrc and cSrc activation in mouse embryo fibroblasts; assay type: cell-based; conditions: 100 nM PMA 15 min
Procedure: FIG. 1: LY294002 blocks PMA-induced colocalization between AFAP-110 and cSrc, and subsequent cSrc activation. A) SYF cells transiently co-expressing GFP-AFAP-110 and cSrc were untreated (panels a-d), treated with 100 nM PMA for 15 minutes (panels e-h), or treated with PMA and either 6 μM bisindolylmaleimide (panels i-I), 10 μM LY294002 (panels m-p) or 50 nM Wortmannin (panels q-t). Fixed cells were immunolabeled with avian specific cSrc antibody, EC10 (1:500), and phospho-Src-family (Tyr416) (1:250) as described in the methods section. Secondary antibodies used were Atexa 546 anti-mouse for EC10 and Alexa 647 anti-rabbit for phospho-Src-family (Tyr416). A merged image was generated to determine colocalization between AFAP-110 and cSrc. Bars represent 20 μM.
D) Knockout MEFs (p85−/−) were transfected with GFP-AFAP-110 and cSrc. Fixed cells were immunolabeled with EC10 (1:500) and phospho-Src-family (Tyr416) (1:250) as described in the methods section. Secondary antibodies used were Alexa 546 anti-mouse for EC10 and Alexa 647 anti-rabbit for phospho-Src-family (Tyr416). Cells treated with 100 riM PMA for 15 minutes (panels e-h). Images were merged to determine colocalization of cSrc and GFP-AFAP-110. Bars represent 20 μm. Mouse embryo fibroblast cells that express the p85α isoform of the PI3K regulatory subunit (p85α+/+) were transfected with GFP-AFAP-110 and cSrc. Fixed cells were immunolabeled with EC10 (1:500) and phospho-Src-family (Tyr416) (1:250) as described in the methods section. Secondary antibodies used were Alexa 546 anti-mouse for EC10 and Alexa 647 anti-rabbit for phospho-Src-family (Tyr416). Images were merged to determine colocalization of cSrc and GFP-AFAP-110. Bars represent 20 μm.
as §1
We utilized SYF cell lines as a model system, mouse embryo fibroblasts engineered to contain null mutations in the c-src,fyn, and c-yes genes (Klinghoffer, R. A. et. al., 1999). The cells were transiently co-transfected with constructs that encode cSrc and GFP-tagged AFAP-110, as previously described (Gatesman, A. et. al., 2004). […]

[4] = SYF cells co-expressing GFP-AFAP-110 and cSrc, pretreatment 6 μM bisindolylmaleimide, 10 μM LY294002 or 50 nM Wortmannin

T1 sequence (Q90738 153-249 limits assumed): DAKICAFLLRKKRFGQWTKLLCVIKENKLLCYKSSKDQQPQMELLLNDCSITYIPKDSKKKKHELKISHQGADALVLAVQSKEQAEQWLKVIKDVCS

Molecule | binding of GST-PH1 to immobilized phospholipid (far western) (PH1 domain of AFAP-110 [1]) | binding (co-sedimentation) of GST-PH1 to lipid vesicles containing the lipid (PH1 domain of AFAP-110 [2]) | also measured
phosphatidylinositol-4-phosphate [Ptdlns-4-P] | strong binding | has the capacity to bind | 
Cc1ccc(-c2nn(C(C)(C)C)c3ncnc(N)c23)cc1 [PP1] |  |  | PMA-directed changes in stress filaments and cell shape (PI3K; 100 nM PMA with 5 μM PP1): impeded; PMA-induced Ptdlns-3,4,5-P3 production (PI3K): did not block
phosphatidylinositol-5-phosphate [Ptdlns-5-P] | strong binding | has the capacity to bind | 
phosphatidylinositol | did not bind |  | 
CCCCCCCCCCCCCCCC(=O)OC[C@H](COP(=O)(O)O[C@@H]1[C@H](O)[C@H](OP(=O)(O)O)[C@@H](O)[C@H](O)[C@H]1O)OC(=O)CCCCCCCCCCCCCCC [Ptdlns-3-P, phosphatidylinositol-3-phosphate] | strong binding | did not bind | 
phosphatidic acid | better than any other phospholipid analyzed |  | 
Phosphatidylethanolamine | not recognized |  | 
Lysophosphatidic acid | not recognized |  | 
CN(C)CCCn1cc(C2=C(c3c[nH]c4ccccc34)C(=O)NC2=O)c2ccccc21 [bisindolylmaleimide [I]] |  |  | PMA-induced translocation of cSrc from the perinuclear region to the cell periphery (cSrc): blocked; PMA-induced Ptdlns-3,4,5-P3 production (PI3K): blocked; PMA-induced cSrc activation (phospho-Src-family Tyr416) [3, 4]: blocked; PMA-induced colocalization of AFAP-110 with cSrc [3, 4]: blocked; PMA-induced associated morphological changes ([3]; SYF cells, pretreatment 6 μM bisindolylmaleimide or 10 μM LY294002): blocked
phosphatidylserine | had the capacity to recognize | has the capacity to bind | 
